From publication PMC12307932, “Convergent evolution of distinct D-ribulose utilisation pathways in attaching and effacing pathogens” (Nature Communications, 2025) come the findings set out here.

Molecules are shown by their SMILES. Where two headings read alike, the source gives them in different places.

The target in this assay is T1, AauA (Escherichia coli, UniProt Q8X6A6).
T1 construct: gene ECs_0374
The assay can be described thus: isothermal titration calorimetry. It counts as binding. (Isothermal titration calorimetry measures the heat released or taken up as one component is titrated into another.)

Broadly, the Kd is the free concentration of one partner at which half of the binding sites on the other are occupied at equilibrium, for simple one-to-one binding. Read a high Kd as weaker binding.

T1 sequence (Q8X6A6 29-328 limits assumed): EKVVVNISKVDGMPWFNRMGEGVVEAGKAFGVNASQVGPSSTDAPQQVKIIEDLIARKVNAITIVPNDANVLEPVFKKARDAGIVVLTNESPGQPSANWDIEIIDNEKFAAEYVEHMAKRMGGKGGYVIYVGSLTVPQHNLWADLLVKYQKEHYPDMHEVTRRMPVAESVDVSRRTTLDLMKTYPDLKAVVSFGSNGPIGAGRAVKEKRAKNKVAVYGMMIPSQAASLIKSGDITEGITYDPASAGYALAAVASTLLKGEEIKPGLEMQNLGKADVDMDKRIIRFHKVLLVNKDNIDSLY

The compound `O=C(CO)[C@H](O)[C@H](O)CO` [D-ribulose] had a Kd of 1.98 ± 0.3 µM.

Compound `OC1OC[C@H](O)[C@H](O)[C@H]1O` (some centres unmarked) [ʟ-arabinose] returned a Kd (50 mM HEPES, 150 mM NaCl, pH 7.0, 25 °C, 70 µM AauA, single-site model) of 598 ± 132 µM.
